Laboratory results: patent US20030055065A1, “Tricyclic amide and urea compounds useful for inhibition of G-protein function and for treatment of proliferative diseases” (priority 1993, published 2003)
Where “and” joins values, the source holds several entries; their conditions need not be identical. Equal entries are not always repeated. Where two headings read alike, the source gives them in different places.

How the values were obtained:
[1] = tested on: T24-BAG4 human bladder carcinoma cells expressing an activated H-ras gene; assay: Cell Mat Assay: tumor cell colony inhibition (tIC50); assay type: cell-based; details: inhibition of tumor cell growth
Description: (§1) Compound-induced colony inhibition was assayed by addition of serial dilutions of compound directly to the growth medium 24 h after tumor cell planting, and incubating cells for an additional 14 d to allow colony formation. Assays were terminated by rinsing monolayers twice with phosphate-buffered saline (PBS), fixing the monolayers with a 1% glutaraldehyde solution in PBS, then visualizing tumor cells by staining with X-Gal (Price, J., et al., Lineage analysis in the vertebrate nervous system by retrovirus-mediated gene transfer, Proc. Natl. Acad. Sci.84, 156-160(1987)). […] Both IC50 values were obtained by determining the density of tumor cells and mat cells by visual inspection and enumeration of cells per colony and the number of colonies under the microscope.

[2] = tested on: Normal human HEPM fibroblasts; assay: Cell Mat Assay: density of mat cells (mIC50); assay type: cell-based
Description: as §1

[3] = molecular target: T1, farnesyl protein transferase (FPT), partially purified from rat brain (Rattus norvegicus, UniProt Q02293+Q04631); assay: Inhibition of farnesyl protein transferase (transfer of [3H]farnesyl to Ras-CVLS); assay type: biochemical; details: partially purified rat brain FPT
T1 construct: were partially purified from rat brain by ammonium sulfate fractionation followed by Q-Sepharose
Procedure, shortened: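 Transfer of [3H]farnesyl onto E. coli-expressed, His6-tagged Ras-CVLS was measured after 30 min at room temperature. Radiolabelled Ras was TCA-precipitated on ice and filter-harvested, and inhibition was expressed as percent of DMSO control.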

[4] = FPT IC50, Ras-CVLS farnesylation
[5] = Ras-CVLS farnesylation, read-out: FPT IC50

T1 sequence (Q02293 whole entry, one chain of several): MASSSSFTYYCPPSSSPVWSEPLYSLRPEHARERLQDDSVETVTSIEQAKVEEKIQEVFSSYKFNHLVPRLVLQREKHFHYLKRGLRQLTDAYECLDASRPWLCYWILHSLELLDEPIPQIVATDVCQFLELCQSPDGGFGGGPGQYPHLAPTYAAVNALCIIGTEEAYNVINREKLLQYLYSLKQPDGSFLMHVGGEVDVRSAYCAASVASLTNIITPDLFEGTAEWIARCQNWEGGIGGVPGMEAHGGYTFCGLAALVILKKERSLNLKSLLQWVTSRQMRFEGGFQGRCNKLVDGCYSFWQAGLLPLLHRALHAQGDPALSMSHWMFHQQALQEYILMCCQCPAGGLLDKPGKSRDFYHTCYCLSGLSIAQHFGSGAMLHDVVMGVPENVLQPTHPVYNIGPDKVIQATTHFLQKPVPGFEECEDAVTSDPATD

Row | SMILES | IC50 [1] [µM] | IC50 ([1]; Homo sapiens) [µM] | IC50 [3, 5] | IC50 [2] [µM] | IC50 ([2]; Homo sapiens, Fibroblast) [µM] | IC50 [3, 4]
1 | O=C(Cc1ccncc1)N1CCC(=C2c3ccncc3CCc3cc(Cl)ccc32)CC1 [160 (5.39)] | 37 | – | – | 50 | – | –
2 | O=C(Cc1ccncc1)N1CCC(=C2c3ccc(Cl)cc3CCc3cc(Cl)cnc32)CC1 [180 (5.47)] | 18 | – | – | > 50 | – | –
3 | O=C(Cc1cccnc1)N1CCN(C2c3ccc(Cl)cc3CCc3ccc[n+]([O-])c32)CC1 (stereo not shown) [184 (5.60)] | – | 12.5 | – | – | > 50 | 0.91 µM
4 | O=C(C(=O)N1CCC(=C2c3ccc(Cl)cc3CCc3cccnc32)CC1)c1c[nH]c2ccccc12 [219 (5.92)] | 25 | – | – | > 50 | – | –
5 | O=C(Cc1csc2ccccc12)N1CCC(=C2c3ccc(Cl)cc3CCc3cccnc32)CC1 [221 (5.94)] | 6.25 | – | – | > 50 | – | –
6 | O=C(Cc1cccnc1)N1CCN([C@@H]2c3ccc(Cl)cc3CCc3cccnc32)CC1 [223 (5.96)] | – | 25 | – | – | > 50 | 2.1 µM
7 | O=C(Cc1cccnc1)N1CCN([C@H]2c3ccc(Cl)cc3CCc3cccnc32)CC1 [223 (5.97)] | – | 8 | – | – | > 50 | 0.19 µM and 0.72 µM and 0.61 µM
8 | O=C(c1ccc([N+](=O)[O-])cc1)N1CCC(=C2c3ccc(Cl)cc3CCc3cccnc32)CC1 [Example 10] | – | 25 | 4.3 µM | – | > 50 | –
9 | O=C(CCCc1ccccc1)N1CCC(=C2c3ccc(Cl)cc3CCc3cccnc32)CC1 [Example 11] | > 50 | – | 4.3 µM | > 50 | – | –
10 | O=C(Cc1ccccc1)N1CCN(C2c3ccc(Cl)cc3CCc3cccnc32)CC1 (stereo not shown) [Example 80] | – | > 50 | – | – | > 50 | 2.73 µM
11 | NS(=O)(=O)c1ccc(C(=O)N2CCC(=C3c4ccc(Cl)cc4CCc4cccnc43)CC2)cc1 [Example 90] | – | 50 | 3.4 µM | – | > 50 | –
12 | CS(=O)(=O)Nc1ccc(C(=O)N2CCC(=C3c4ccc(Cl)cc4CCc4cccnc43)CC2)cc1 [Example 91] | – | 50 | 3.9 µM | – | 80 | –
13 | CS(=O)(=O)c1ccc(C(=O)N2CCC(=C3c4ccc(Cl)cc4CCc4cccnc43)CC2)cc1 [Example 93] | – | 40 | 3.9 µM | – | > 50 | –
14 | C[S+]([O-])c1ccc(C(=O)N2CCC(=C3c4ccc(Cl)cc4CCc4cccnc43)CC2)cc1 (stereo not shown) [Example 94] | – | 40 | 4 µM | – | 80 | –
15 | O=C(/C=C/c1cccnc1)N1CCC(=C2c3ccc(Cl)cc3CCc3cccnc32)CC1 [Example 96] | – | 50 | 4.3 µM | – | > 50 | –
16 | Cc1cnc2c(c1)CCc1cc(Cl)ccc1C2=C1CCN(C(=O)Cc2ccncc2)CC1 [Example 301] | – | – | 0.04 µM and 0.075 µM | – | > 50 | –

Further lines, with some results ahead:

Row | IC50 [1] [µM] | IC50 ([1]; Homo sapiens) [µM] | IC50 [3, 5] | SMILES | IC50 [2] [µM] | IC50 ([2]; Homo sapiens, Fibroblast) [µM] | IC50 [3, 4]
17 | – | 5 | – | O=C(Nc1ccncc1)N1CCN(C2c3ccc(Cl)cc3CCc3cccnc32)CC1 (stereo not shown) [183 (6.5)] | – | 18 | –
18 | 25 | – | – | O=C(Cc1ccccc1[N+](=O)[O-])C(=O)N1CCC(=C2c3ccc(Cl)cc3CCc3cccnc32)CC1 [220 (5.93)] | > 50 | – | –
19 | – | 12.5 | 3.5 µM | CC(=O)N1CCC(CC(=O)N2CCN([C@@H]3c4ccc(Cl)cc4CCc4cccnc43)CC2)CC1 [225 (5.98)] | – | 50 | –
20 | – | 25 | 4.1 µM | CC(=O)N1CCC(C(=O)N2CCN([C@@H]3c4ccc(Cl)cc4CCc4cccnc43)CC2)CC1 [226 (5.100)] | – | > 50 | –
21 | – | 50 | 4.3 µM | O=C(CSc1ncccn1)N1CCC(=C2c3ccc(Cl)cc3CCc3cccnc32)CC1 [Example 12] | – | > 50 | –
22 | – | > 50 | 2.78 µM | CC(S)C(=O)NCC(=O)N1CCN(C2c3ccc(Cl)cc3CCc3cccnc32)CC1 (stereo not shown) [Example 81] | – | > 50 | –
23 | – | > 50 | 4.2 µM | O=C(C1CCS(=O)(=O)CC1)N1CCC(=C2c3ccc(Cl)cc3CCc3cccnc32)CC1 [Example 95] | – | > 50 | –
24 | – | 6.25 | – | CN1CCCC(CC(=O)N2CCN(C3c4ccc(Cl)cc4CCc4cc(Br)cnc43)CC2)C1 (stereo not shown) [Example 425-U] | – | 10 | –
